Values quoted from earlier work in patent US12527815B2, “Aqueous formulation including dissolved hydrogen gas and minerals and additives” (BEST PLANET SCIENCE LLC, priority 2023, dated 2026).

Conditions: partial pressure of one atm

In the case of `[HH]` [hydrogen gas, hydrogen], the “equilibrium concentration (saturation) of hydrogen gas in water” value is given as 1.57 mg/L.
